The source made the active and inactive calls. No cut-off for these calls is given here.
Tests used:
HepG2 [1] = experiment: cells; assay type: functional, cell-based; settings: Homo sapiens, HepG2, 24 h
HeLa [2] = experiment: cells; assay type: functional, cell-based; settings: Homo sapiens, 48 h
SH-SY5Y [3] = experiment: cells; assay type: functional, cell-based; settings: Homo sapiens, 48 h
Histone deacetylase 8 = target: T1, Histone deacetylase 8 (Homo sapiens, UniProt Q9BY41); experiment: Inhibition of human recombinant HDAC8 using Fluor de Lys as substrate
T1 sequence (Q9BY41 whole entry): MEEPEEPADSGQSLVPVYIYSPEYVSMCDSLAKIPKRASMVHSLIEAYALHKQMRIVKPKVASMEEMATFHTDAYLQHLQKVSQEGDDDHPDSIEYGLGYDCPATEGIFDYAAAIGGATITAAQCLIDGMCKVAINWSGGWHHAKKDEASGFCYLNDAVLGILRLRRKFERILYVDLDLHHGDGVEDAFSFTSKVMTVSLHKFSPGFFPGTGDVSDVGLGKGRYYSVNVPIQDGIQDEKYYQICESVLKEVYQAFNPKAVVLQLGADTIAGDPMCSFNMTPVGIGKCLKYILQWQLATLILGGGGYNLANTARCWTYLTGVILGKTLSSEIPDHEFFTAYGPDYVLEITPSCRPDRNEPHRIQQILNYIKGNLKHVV

SH-SY5Y [4] = experiment: cells; assay type: functional, cell-based; settings: Homo sapiens, 72 h
HepG2 [5] = experiment: cells; assay type: functional, cell-based; settings: Homo sapiens, HepG2, 48 h
[6] = target: Histone deacetylase (Homo sapiens) (UniProt Q13547+O15379+Q9UBN7+Q92769+Q9UQL6+Q8WUI4+Q9BY41+Q96DB2+P56524+Q9UKV0+Q969S8); experiment: Inhibition of HDAC in retinoic acid-differentiated human SH-SY5Y cells assessed as increase in histone H4 acetylation at 1 uM after 24 hrs by Western blot analysis; assay type: cell-based
SH-SY5Y [7] = experiment: cells; assay type: functional, cell-based; settings: Homo sapiens, 24 h
HeLa [8] = experiment: cells; assay type: functional, cell-based; settings: Homo sapiens, 72 h
[9] = target: Histone deacetylase 3/Nuclear receptor corepressor 2 (HDAC3/NCoR2) (Homo sapiens, UniProt O15379); experiment: Inhibition of human recombinant HDAC3/NCoR2 using fluorophore-conjugated substrate Boc-L-Lys(Ac)-AMC; assay type: protein-complex assay
Histone deacetylase 5 = Histone deacetylase 5 (Homo sapiens, UniProt Q9UQL6); experiment: Inhibition of human recombinant HDAC5 using fluorophore-conjugated substrate Boc-L-Lys(Ac)-AMC after 60 mins
[10] = target: T2, Polyamine deacetylase HDAC10 (Homo sapiens, UniProt Q969S8); experiment: Inhibition of human recombinant HDAC10 using fluorophore-conjugated substrate Boc-L-Lys(Ac)-AMC after 60 mins
T2 sequence (Q969S8 whole entry): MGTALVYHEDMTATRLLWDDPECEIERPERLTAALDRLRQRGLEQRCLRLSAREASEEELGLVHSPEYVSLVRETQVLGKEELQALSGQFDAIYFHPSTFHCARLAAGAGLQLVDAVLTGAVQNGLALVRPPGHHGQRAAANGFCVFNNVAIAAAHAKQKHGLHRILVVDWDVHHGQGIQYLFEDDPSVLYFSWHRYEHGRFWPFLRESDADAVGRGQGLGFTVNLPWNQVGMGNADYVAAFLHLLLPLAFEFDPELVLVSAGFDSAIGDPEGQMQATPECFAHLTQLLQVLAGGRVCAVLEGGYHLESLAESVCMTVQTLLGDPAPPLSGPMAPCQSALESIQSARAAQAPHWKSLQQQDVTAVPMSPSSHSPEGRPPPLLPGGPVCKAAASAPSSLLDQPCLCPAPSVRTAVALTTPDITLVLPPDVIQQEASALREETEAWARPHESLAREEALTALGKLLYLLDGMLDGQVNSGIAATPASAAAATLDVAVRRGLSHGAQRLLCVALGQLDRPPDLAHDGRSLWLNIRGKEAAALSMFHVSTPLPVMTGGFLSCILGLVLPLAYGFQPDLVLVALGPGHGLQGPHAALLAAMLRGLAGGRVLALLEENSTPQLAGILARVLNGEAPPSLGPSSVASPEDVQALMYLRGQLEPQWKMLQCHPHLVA

Histone deacetylase 11 = target: T3, Histone deacetylase 11 (Homo sapiens, UniProt Q96DB2); experiment: Inhibition of human recombinant HDAC11 using fluorophore-conjugated substrate Boc-L-Lys(Ac)-AMC after 60 mins
T3 sequence (Q96DB2 whole entry): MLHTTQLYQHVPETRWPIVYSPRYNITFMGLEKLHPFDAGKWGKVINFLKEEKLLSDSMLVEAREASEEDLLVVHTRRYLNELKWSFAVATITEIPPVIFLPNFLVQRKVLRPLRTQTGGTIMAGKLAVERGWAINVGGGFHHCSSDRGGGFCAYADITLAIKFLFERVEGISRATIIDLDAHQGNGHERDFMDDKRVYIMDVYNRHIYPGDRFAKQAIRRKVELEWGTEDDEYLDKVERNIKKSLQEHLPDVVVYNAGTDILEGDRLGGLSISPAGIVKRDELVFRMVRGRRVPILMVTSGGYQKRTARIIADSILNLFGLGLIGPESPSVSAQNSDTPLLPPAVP

Histone deacetylase 4 = Histone deacetylase 4 (Homo sapiens, UniProt P56524); experiment: Inhibition of human recombinant HDAC4 using fluorophore-conjugated substrate Boc-L-Lys(Ac)-AMC after 60 mins
Histone deacetylase 4, sequence (P56524 whole entry): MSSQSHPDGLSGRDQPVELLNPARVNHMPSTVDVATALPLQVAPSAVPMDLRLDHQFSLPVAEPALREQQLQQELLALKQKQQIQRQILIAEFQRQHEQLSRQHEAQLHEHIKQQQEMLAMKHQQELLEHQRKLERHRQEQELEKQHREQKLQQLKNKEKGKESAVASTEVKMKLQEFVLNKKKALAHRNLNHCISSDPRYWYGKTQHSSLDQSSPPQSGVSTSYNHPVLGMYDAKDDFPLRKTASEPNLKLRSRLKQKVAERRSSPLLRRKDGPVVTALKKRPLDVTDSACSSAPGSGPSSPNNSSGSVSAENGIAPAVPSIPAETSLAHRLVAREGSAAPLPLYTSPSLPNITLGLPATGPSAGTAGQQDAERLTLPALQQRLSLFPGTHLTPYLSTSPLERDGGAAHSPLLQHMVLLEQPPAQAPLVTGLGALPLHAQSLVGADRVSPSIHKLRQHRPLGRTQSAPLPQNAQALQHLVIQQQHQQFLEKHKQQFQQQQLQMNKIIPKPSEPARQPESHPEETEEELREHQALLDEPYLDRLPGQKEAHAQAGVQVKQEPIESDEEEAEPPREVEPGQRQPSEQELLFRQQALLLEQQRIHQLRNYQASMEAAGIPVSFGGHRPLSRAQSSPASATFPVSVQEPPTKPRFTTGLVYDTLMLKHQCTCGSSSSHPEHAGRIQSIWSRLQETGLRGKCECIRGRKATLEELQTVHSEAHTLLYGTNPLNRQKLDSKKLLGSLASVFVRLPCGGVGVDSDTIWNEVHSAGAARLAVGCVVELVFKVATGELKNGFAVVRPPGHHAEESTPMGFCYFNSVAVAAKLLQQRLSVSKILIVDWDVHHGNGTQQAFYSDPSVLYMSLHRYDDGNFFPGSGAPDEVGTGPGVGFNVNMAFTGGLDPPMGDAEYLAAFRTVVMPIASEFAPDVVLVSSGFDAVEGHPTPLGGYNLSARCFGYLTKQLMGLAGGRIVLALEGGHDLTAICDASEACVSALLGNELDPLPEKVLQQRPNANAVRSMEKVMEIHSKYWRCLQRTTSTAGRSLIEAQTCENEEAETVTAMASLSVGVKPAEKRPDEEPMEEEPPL

Histone deacetylase 3/Nuclear receptor corepressor 2 (HDAC3/NCoR2), sequence (O15379 whole entry): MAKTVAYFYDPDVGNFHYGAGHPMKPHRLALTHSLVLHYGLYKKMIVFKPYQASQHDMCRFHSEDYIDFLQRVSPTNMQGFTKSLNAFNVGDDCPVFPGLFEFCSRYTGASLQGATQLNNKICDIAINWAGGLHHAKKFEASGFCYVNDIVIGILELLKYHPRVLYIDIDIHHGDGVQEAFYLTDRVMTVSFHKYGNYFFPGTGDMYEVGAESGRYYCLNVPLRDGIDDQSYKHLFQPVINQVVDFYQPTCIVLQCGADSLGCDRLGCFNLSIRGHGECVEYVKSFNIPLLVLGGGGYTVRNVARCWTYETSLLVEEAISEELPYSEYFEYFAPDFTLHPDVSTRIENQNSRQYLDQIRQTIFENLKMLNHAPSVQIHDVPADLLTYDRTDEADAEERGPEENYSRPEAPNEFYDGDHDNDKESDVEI
Histone deacetylase 3/Nuclear receptor corepressor 2 (HDAC3/NCoR2), sequence (Q9Y618 whole entry, further chain): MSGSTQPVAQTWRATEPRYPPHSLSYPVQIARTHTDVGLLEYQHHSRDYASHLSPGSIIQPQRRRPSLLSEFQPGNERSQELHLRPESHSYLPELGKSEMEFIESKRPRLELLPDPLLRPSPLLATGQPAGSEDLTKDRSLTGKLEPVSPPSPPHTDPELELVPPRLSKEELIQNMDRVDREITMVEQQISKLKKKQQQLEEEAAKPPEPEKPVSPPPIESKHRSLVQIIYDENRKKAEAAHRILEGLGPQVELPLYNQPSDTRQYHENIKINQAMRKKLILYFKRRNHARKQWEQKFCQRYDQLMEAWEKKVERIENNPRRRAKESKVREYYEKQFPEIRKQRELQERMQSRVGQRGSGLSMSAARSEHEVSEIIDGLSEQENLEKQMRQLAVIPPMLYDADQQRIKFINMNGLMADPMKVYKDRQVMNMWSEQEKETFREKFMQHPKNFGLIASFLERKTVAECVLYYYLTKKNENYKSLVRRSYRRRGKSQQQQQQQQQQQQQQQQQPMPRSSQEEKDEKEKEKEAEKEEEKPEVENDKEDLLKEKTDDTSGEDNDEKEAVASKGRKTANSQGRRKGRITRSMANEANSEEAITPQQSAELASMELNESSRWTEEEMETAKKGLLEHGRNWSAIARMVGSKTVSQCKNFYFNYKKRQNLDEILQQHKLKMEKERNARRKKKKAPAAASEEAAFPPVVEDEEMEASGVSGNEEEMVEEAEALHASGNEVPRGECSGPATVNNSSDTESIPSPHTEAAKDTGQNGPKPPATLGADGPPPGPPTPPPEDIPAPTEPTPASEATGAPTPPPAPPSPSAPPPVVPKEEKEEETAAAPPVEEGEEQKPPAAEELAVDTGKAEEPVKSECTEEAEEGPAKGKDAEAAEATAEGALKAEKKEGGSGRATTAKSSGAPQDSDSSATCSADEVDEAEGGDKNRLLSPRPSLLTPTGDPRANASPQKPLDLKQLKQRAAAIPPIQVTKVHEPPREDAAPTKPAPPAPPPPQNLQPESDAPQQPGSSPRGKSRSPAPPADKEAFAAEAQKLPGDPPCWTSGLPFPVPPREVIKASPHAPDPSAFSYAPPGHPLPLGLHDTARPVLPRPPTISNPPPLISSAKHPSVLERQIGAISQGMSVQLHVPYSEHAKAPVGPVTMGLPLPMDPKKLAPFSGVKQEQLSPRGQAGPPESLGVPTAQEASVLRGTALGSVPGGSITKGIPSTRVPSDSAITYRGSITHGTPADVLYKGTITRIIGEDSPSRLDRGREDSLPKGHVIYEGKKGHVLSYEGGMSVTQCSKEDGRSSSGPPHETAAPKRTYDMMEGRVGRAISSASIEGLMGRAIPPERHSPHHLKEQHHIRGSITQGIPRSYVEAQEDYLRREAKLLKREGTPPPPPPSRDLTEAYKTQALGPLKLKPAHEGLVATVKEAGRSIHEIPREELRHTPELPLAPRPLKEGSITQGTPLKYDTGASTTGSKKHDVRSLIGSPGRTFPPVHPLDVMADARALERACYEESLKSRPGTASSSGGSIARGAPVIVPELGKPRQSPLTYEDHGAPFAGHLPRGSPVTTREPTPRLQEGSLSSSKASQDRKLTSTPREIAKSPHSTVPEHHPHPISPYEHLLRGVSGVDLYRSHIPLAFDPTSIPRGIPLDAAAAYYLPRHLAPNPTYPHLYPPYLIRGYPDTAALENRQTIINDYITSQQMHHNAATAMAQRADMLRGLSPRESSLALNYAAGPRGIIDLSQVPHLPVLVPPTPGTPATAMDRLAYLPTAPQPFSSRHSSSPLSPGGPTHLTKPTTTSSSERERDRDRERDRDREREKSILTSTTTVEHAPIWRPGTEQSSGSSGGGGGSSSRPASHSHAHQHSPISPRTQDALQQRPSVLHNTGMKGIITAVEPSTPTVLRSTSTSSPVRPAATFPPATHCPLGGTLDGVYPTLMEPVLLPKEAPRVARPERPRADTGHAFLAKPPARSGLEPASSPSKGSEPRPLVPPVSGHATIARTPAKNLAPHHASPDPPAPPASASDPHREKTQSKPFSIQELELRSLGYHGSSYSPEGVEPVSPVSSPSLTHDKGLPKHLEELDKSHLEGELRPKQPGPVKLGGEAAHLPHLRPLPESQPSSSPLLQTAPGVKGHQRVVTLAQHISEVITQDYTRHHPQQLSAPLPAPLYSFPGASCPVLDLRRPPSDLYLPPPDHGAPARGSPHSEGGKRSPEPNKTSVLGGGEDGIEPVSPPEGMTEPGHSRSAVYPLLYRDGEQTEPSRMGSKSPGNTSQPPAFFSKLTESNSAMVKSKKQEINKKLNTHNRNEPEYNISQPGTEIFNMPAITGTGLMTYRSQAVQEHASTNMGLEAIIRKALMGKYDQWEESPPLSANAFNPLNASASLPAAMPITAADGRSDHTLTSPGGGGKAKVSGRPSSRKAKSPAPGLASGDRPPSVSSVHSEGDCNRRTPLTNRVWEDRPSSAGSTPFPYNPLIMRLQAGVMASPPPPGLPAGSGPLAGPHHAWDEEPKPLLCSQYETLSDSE
Histone deacetylase 5, sequence (Q9UQL6 whole entry): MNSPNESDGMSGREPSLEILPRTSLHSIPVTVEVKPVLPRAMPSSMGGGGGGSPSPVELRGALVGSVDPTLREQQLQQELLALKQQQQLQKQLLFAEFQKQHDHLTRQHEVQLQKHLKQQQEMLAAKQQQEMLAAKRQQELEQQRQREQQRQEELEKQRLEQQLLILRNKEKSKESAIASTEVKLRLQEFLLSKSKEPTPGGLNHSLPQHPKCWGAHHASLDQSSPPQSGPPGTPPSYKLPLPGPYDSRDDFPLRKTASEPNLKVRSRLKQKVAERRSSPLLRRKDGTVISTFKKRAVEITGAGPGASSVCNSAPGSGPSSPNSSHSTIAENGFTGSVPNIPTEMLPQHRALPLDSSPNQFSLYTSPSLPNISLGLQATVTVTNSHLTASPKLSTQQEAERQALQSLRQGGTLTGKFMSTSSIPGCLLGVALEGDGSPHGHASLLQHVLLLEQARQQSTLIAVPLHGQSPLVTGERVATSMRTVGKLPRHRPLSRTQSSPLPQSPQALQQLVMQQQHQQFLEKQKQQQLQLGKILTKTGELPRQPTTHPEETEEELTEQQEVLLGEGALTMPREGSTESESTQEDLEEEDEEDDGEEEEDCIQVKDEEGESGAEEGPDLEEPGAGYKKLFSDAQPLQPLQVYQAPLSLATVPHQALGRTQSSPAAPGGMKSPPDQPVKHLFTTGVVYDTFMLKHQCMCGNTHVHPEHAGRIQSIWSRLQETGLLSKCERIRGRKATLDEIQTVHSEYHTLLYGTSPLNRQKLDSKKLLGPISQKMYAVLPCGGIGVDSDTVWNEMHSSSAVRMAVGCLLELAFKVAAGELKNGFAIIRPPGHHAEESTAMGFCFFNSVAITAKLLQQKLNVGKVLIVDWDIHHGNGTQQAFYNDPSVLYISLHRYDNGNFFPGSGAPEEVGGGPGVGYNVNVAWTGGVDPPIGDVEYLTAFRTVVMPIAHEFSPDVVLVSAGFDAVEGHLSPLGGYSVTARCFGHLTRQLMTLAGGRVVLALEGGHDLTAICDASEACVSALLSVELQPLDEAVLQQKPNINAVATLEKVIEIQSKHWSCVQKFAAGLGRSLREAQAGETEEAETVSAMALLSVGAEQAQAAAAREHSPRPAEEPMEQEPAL

SMILES	EC50 (HepG2 [1]) [µM]	EC50 (HeLa [2]) [µM]	EC50 (SH-SY5Y [3]) [µM]	IC50 (Histone deacetylase 8) [µM]	EC50 (SH-SY5Y [4]) [µM]	EC50 (HepG2 [5]) [µM]	inhibition [6]	EC50 (SH-SY5Y [7]) [µM]	EC50 (HeLa [8]) [µM]	IC50 [9] [µM]	IC50 (Histone deacetylase 5) [µM]	IC50 [10] [µM]	IC50 (Histone deacetylase 11) [µM]	IC50 (Histone deacetylase 4) [µM]
[N-]=[N+]=NCc1cc(N=[N+]=[N-])cc(C(=O)Nc2ccc(-c3cc(C(=O)NCCCCCCC(=O)NO)no3)cc2)c1	> 50	10.7	32.2	0.651	23	11.5	Active	> 50	4.7	0.045	0.932	0.776	0.116	0.432
[N-]=[N+]=NCc1cc(Cn2cc(NC(=O)CCCCCCC(=O)NO)cn2)cc(N=[N+]=[N-])c1	> 50	23.7	35.9	0.017	20.8	24.3	Active	> 50	15	0.128	0.892	0.14	0.476	0.379
